The target of assay [1] is T1, Recombinant human furin (Homo sapiens, UniProt P09958). In kind it is biochemical. Conditions: 4 μM substrate; 10 mM MES, 1 mM CaCl2, 0.01% Triton X-100, pH 7.0, 36.5 °C.
For the next assay, the target named is T2, Kex2 (Saccharomyces cerevisiae, UniProt P13134).
T2 sequence (P13134 114-613 limits assumed): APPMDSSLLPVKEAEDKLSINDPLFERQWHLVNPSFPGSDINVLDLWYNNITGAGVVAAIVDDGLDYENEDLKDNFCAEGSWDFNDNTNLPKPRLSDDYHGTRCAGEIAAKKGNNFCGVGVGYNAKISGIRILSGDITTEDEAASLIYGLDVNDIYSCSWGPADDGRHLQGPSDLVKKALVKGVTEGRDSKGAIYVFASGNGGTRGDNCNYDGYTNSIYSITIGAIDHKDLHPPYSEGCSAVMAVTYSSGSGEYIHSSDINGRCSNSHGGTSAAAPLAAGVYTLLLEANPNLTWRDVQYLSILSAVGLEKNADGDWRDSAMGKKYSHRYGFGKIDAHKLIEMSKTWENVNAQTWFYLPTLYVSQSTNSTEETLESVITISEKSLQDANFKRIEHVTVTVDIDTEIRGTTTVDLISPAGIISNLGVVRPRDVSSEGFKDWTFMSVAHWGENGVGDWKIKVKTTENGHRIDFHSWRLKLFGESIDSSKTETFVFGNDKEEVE
In kind it is biochemical, S. cerevisiae. Conditions: in the absence of Mg^2+.

Assay [2] has as its target T1, Recombinant human furin. In kind it is biochemical.
Assay [3] concerns the target T1, Recombinant human furin. Format: biochemical. This is another data set of the same source.

Values joined by “and” are separate entries in the source; they are usually repeats but may differ in a detail not shown here. Equal entries are not always repeated. *: point of attachment. EDDnp = O=[N+]([O-])c1ccc(NCCN*)c([N+](=O)[O-])c1

T1 sequence (P09958 108-715 limits assumed): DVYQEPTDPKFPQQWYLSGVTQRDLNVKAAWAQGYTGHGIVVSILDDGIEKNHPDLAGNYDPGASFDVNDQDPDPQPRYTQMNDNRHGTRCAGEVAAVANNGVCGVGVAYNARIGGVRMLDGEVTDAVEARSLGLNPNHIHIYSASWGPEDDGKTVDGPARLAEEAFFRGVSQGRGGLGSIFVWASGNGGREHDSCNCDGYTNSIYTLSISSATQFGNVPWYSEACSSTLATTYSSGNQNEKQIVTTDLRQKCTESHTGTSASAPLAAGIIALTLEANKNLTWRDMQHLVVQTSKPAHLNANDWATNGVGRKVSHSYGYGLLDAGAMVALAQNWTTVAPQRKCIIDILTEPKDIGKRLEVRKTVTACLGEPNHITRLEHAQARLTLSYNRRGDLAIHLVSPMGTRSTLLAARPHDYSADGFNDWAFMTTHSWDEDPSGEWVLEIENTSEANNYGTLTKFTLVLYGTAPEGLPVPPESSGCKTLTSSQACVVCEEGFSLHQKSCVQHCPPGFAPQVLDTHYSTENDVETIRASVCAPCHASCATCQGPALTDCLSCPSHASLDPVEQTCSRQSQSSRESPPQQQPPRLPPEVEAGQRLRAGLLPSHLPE

With `[Cl-].[K+]` [KCl], the “effect on the rate of hydrolysis of Abz-[…]-Q-EDDnp by furin” value (“effect on the rate” for short) on Recombinant human furin [1] was “increased the rate of hydrolysis”.

As for `[Cl-].[Cl-].[Mg+2]` [Mg^2+, magnesium chloride], the “effect on the rate” value on Recombinant human furin [1] is “significant increase”.

For `[Cl-].[Na+]` [NaCl], at Recombinant human furin [1], the “effect on the rate” value is “no effect”.

Regarding Abz-LDKR↓EAE-Q-EDDnp, the “kcat/Km for hydrolysis by kex2” value at Kex2 was 353 mM⁻¹ s⁻¹.

Regarding Abz-RKRSRRQVNTQ-EDDnp [peptide 1], the “R: relative kcat/Km values in presence vs. absence of MgCl2” value (shortened to “R: relative kcat/Km values”) with Recombinant human furin [2] was 44. In addition, in the assay with Recombinant human furin [2] (pH 7), the kcat is 11.3 (8.4) s^−1 and the kcat/Km is reported as 56300 (1291) (mM.s)^−1. Also, the “pK1 of pH-profile of furin hydrolysis” value with Recombinant human furin [3] is 5.46 and 5.67.

In the case of “Abz-SRRHKR↓FAGV-Q-EDDnp (Abz-SRRHKRFAGVQ-EDDnp) [peptide 32]”, the “R: relative kcat/Km values” value in the assay with Recombinant human furin [2] came out at 60. Moreover, in the assay with Recombinant human furin [2] (pH 7), the kcat is reported as 2.4 (0.21) s^−1 and the kcat/Km is reported as 33857 (559) (mM.s)^−1. For the same compound, the “pK1 of pH-profile of furin hydrolysis” value in the assay with Recombinant human furin [3] was 5.27 and 5.42.

On to Abz-YKR↓EAD-Q-EDDnp, for which the “kcat/Km for hydrolysis by kex2” value at Kex2 amounted to 7939 mM⁻¹ s⁻¹.

With MMRHRR↓ELQR [compound 7], at Recombinant human furin [2], the “R: relative kcat/Km values” value was 1.7. In addition, at Recombinant human furin [2] (pH 7), the kcat was 10.3 (16.2) s^−1 and the kcat/Km is 23409 (13508) (mM.s)^−1.

Regarding NLRRRR↓DLVD [compound 28], the “R: relative kcat/Km values” value at Recombinant human furin [2] was found to be 7.2. Also, at Recombinant human furin [2] (pH 7), the kcat is recorded as 3.5 (2.0) s^−1 and the kcat/Km is reported as 10606 (1470) (mM.s)^−1.

Regarding NTRSRR↓SVPV [compound 29], the “hydrolysis by furin (result in words, cell spans kcat, Km, kcat/Km and R)” value on Recombinant human furin [2] (pH 7) is “Slow Hydrolysis”.

Consider QIRAKR↓ELSK [compound 2], for which the “R: relative kcat/Km values” value at Recombinant human furin [2] was 6.9. Besides, on Recombinant human furin [2] (pH 7), the kcat is on record as 6.7 (9.7) s^−1 and the kcat/Km is 5583 (808) (mM.s)^−1.

For QSRRRR↓QTPP [compound 41], at Recombinant human furin [2], the “R: relative kcat/Km values” value was 0.05. For the same compound, on Recombinant human furin [2] (pH 7), the kcat is listed as 3.4 (6.3) s^−1 and the kcat/Km is 1547 (31067) (mM.s)^−1.

With RKRRKR↓ELET [compound 27], at Recombinant human furin [2], the “R: relative kcat/Km values” value worked out at 8.5. Further, at Recombinant human furin [2] (pH 7), the kcat is on record as 4.3 (0.23) s^−1 and the kcat/Km is 1400 (164) (mM.s)^−1.

In general, Km refers to the concentration of substrate that gives half-maximal velocity. Consider RNRQKR↓FVLS [compound 42], for which, at Recombinant human furin [2] (pH 7), the Michaelis constant (Km) was 590 nM, the kcat is 0.20 s⁻¹ and the kcat/Km turned out to be 337 mM/s.

For the compound RRRAKR↓SPKH [compound 35], at Recombinant human furin [2], the “R: relative kcat/Km values” value is reported as 6.2. For the same compound, at Recombinant human furin [2] (pH 7), the kcat is 5.3 (8.7) s^−1 and the kcat/Km was 4383 (710) (mM.s)^−1.

Regarding RRRDKR↓SVAL [compound 15], at Recombinant human furin [2], the “R: relative kcat/Km values” value was 0.8. On Recombinant human furin [2] (pH 7), the Km was 410 nM and 390 nM; the kcat is listed as 12.2 (14.6) s^−1; the kcat/Km is 29658 (37505) (mM.s)^−1.

Take RRRKKR↓GLSG [compound 45]: on Recombinant human furin [2], the “R: relative kcat/Km values” value turned out to be 38. Also, at Recombinant human furin [2] (pH 7), the kcat is listed as 6.7 (2.4) s^−1 and the kcat/Km is recorded as 30500 (797) (mM.s)^−1.

On to RRRKKR↓SLFG [compound 46], for which the “R: relative kcat/Km values” value at Recombinant human furin [2] came to 54. In addition, at Recombinant human furin [2] (pH 7), the kcat is reported as 7.6 (1.0) s^−1 and the kcat/Km is 33043 (606) (mM.s)^−1.

On to RRRKKR↓SLSG [compound 47], for which the “R: relative kcat/Km values” value at Recombinant human furin [2] amounted to 14. In addition, on Recombinant human furin [2] (pH 7), the kcat is 4.5(0.92) s^−1 and the kcat/Km is on record as 18833 (1333) (mM.s)^−1.

Consider SIRHKR↓EPSV [compound 20], for which the “R: relative kcat/Km values” value on Recombinant human furin [2] came out at 0.9. Besides, on Recombinant human furin [2] (pH 7), the Km is 2400 nM and 2800 nM; the kcat is given as 1.6 (2.1) s^−1; the kcat/Km is 646 (729) (mM.s)^−1.

Take SKRSRR↓SVSV [compound 13]: on Recombinant human furin [2], the “R: relative kcat/Km values” value stood at 1.5. Further, at Recombinant human furin [2] (pH 7), the Km was 490 nM and 410 nM; the kcat was 18.3 (10.5) s^−1; the kcat/Km is reported as 37347(25362) (mM.s)^−1.

Take SRRKRR↓DVTP [compound 6]: the “R: relative kcat/Km values” value at Recombinant human furin [2] is reported as 3.2. Further, on Recombinant human furin [2] (pH 7), the kcat was 9.9 (9.2) s^−1 and the kcat/Km is 66000 (20467) (mM.s)^−1.

For SRRKRR↓SAST [compound 22], the “R: relative kcat/Km values” value on Recombinant human furin [2] is on record as 38. Further, on Recombinant human furin [2] (pH 7), the kcat is listed as 11.1 (10.0) s^−1 and the kcat/Km was 76232 (1992) (mM.s)^−1.

With SRRSRR↓SLTV [compound 12], at Recombinant human furin [2] (pH 7), the kcat is on record as 6.2 (4.3) s^−1 and the kcat/Km is reported as 15923 (5328) (mM.s)^−1.

In the case of SSRHRR↓ALDT [compound 36], the “R: relative kcat/Km values” value at Recombinant human furin [2] was found to be 0.3. Moreover, at Recombinant human furin [2] (pH 7), the kcat is 7.1 (5.6) s^−1 and the kcat/Km was 1707 (6488) (mM.s)^−1.

Turning to THRTRR↓STSD [compound 24], the “R: relative kcat/Km values” value at Recombinant human furin [2] worked out at 11. In addition, on Recombinant human furin [2] (pH 7), the Michaelis constant (Km) was 1900 nM and 1200 nM; the kcat was 8.1 (0.44) s^−1; the kcat/Km was 4128 (370) (mM.s)^−1.

TRRFRR↓SITE [compound 34]: the “R: relative kcat/Km values” value at Recombinant human furin [2] was found to be 1.3. Also, on Recombinant human furin [2] (pH 7), the Michaelis constant (Km) was 530 nM and 580 nM; the kcat is given as 19.8 (16.4) s^−1; the kcat/Km is listed as 37358 (28362) (mM.s)^−1.

VQREKR↓AVGI [compound 18]: on Recombinant human furin [2], the “R: relative kcat/Km values” value is recorded as 3.2. At Recombinant human furin [2] (pH 7), the Michaelis constant (Km) is 2100 nM and 2800 nM; the kcat was 2.7 (1.2) s^−1; the kcat/Km was 1290 (407) (mM.s)^−1.

As for VRRRRR↓YALS [compound 43], at Recombinant human furin [2] (pH 7), the Km came to 3140 nM, the kcat is 0.60 s⁻¹ and the kcat/Km is 193 mM/s.

Turning to VVRVRR↓ELLP [compound 5], the “R: relative kcat/Km values” value on Recombinant human furin [2] worked out at 3.8. Moreover, at Recombinant human furin [2] (pH 7), the kcat is 16.6 (12.2) s^−1 and the kcat/Km is on record as 13071 (3466) (mM.s)^−1.

The values above are taken from publication PMC4821188 (Biological chemistry, 2010).
